# Measured values from PubChem BioAssay (NCI).
#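 Growth conditions: 96-well plates. Treatment: test compound, 48 hours, 5 concentrations. Analysis: linear interpolation between bracketing concentrations; unreached endpoints set to highest concentration. The concentration for full growth arrest is given as TGI.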
# Experiments:
# Assay in all cases: NCI tumour cell line growth inhibition, 48 h
# [1] = tested on: KM20L2 colon
# [2] = tested on: HL-60(TB) leukemia
# [3] = tested on: SF-295 CNS
# [4] = tested on: IGROV1 ovarian
# [5] = tested on: SK-MEL-28 melanoma
# [6] = tested on: MALME-3M melanoma
# [7] = tested on: COLO 205 colon
# [8] = tested on: SN12C renal
# [9] = tested on: SNB-75 CNS
# [10] = tested on: K-562 leukemia
# [11] = tested on: OVCAR-8 ovarian
# [12] = tested on: OVCAR-5 ovarian
# [13] = tested on: CAKI-1 renal
# [14] = tested on: U251 CNS
# [15] = tested on: NCI-H460 lung
# [16] = tested on: UACC-257 melanoma
# [17] = tested on: DMS 114 small cell lung
# [18] = tested on: MOLT-4 leukemia
# [19] = tested on: SW-620 colon
# [20] = tested on: M14 melanoma
# [21] = tested on: HT29 colon
# [22] = tested on: HCT-116 colon
# [23] = tested on: A549 NSCLC
# [24] = tested on: SNB-19 CNS
# [25] = tested on: OVCAR-4 ovarian
# [26] = tested on: UO-31 renal
# [27] = tested on: HOP-62 NSCLC
# [28] = tested on: HOP-92 NSCLC
# [29] = tested on: UACC-62 melanoma
# [30] = tested on: 786-0 renal
# [31] = tested on: HCC-2998 colon
# [32] = tested on: LXFL 529 NSCLC
# [33] = tested on: SF-539 CNS
# [34] = tested on: CCRF-CEM leukemia
# [35] = tested on: NCI-H522 lung
# [36] = tested on: ACHN renal
# [37] = tested on: TK-10 renal
# [38] = tested on: OVCAR-3 ovarian
# [39] = tested on: SNB-78 CNS
# [40] = tested on: EKVX NSCLC
# [41] = tested on: SK-MEL-5 melanoma
# [42] = tested on: KM12 colon
# [43] = tested on: RPMI-8226 leukemia
# [44] = tested on: HCT-15 colon
# [45] = tested on: M19-MEL melanoma
# [46] = tested on: A498 renal
# [47] = tested on: DLD-1 colon
# [48] = tested on: NCI-H226 lung
# [49] = tested on: SK-OV-3 ovarian
# [50] = tested on: HOP-18 NSCLC
# [51] = tested on: NCI-H23 lung
# [52] = tested on: DMS 273 small cell lung
# [53] = tested on: SF-268 CNS
# [54] = tested on: RXF 393 renal
# [55] = tested on: HS 578T breast
# [56] = tested on: MDA-MB-231 breast
# [57] = tested on: NCI/ADR-RES ovarian
# [58] = tested on: LOX IMVI melanoma
# [59] = tested on: SR leukemia
# [60] = tested on: MDA-N
# [61] = tested on: DU-145 prostate
# [62] = tested on: SK-MEL-2 melanoma
# [63] = tested on: MDA-MB-435
# [64] = tested on: T-47D breast
# [65] = tested on: MCF7 breast
# [66] = tested on: BT-549 breast
# [67] = tested on: PC-3 prostate
smiles,measurement,setting,value
Cc1ccc(C(=O)/C=C/c2ccccc2Cl)cc1,TGI,[1],30.9 µM
same,TGI,[2],42.8 µM
same,TGI,[3],39.8 µM
same,TGI,[4],32.9 µM
same,TGI,[5],29.2 µM
same,TGI,[6],53.6 µM
same,TGI,[7],47.2 µM
same,TGI,[8],39.3 µM
same,TGI,[9],44.8 µM
same,TGI,[10],46 µM
same,TGI,[11],29.6 µM
same,TGI,[12],41.9 µM
same,TGI,[13],34.6 µM
same,TGI,[14],30.3 µM
same,TGI,[15],29.1 µM
same,TGI,[16],33.6 µM
same,TGI,[17],35.5 µM
same,TGI,[18],56.1 µM
same,TGI,[19],27 µM
same,TGI,[20],31.4 µM
same,TGI,[21],29.7 µM
same,TGI,[22],25.6 µM
same,TGI,[23],85.4 µM
same,TGI,[24],32.5 µM
same,TGI,[25],34.6 µM
same,TGI,[26],32.8 µM
same,TGI,[27],> 100 µM
same,TGI,[28],63.5 µM
same,TGI,[29],27.7 µM
same,TGI,[30],29.7 µM
same,TGI,[31],33.2 µM
same,TGI,[32],28.7 µM
same,TGI,[33],38.9 µM
same,TGI,[34],42.6 µM
same,TGI,[35],26.9 µM
same,TGI,[36],29.4 µM
same,TGI,[37],61.7 µM
same,TGI,[38],31 µM
same,TGI,[39],46.8 µM
same,TGI,[40],33.6 µM
same,TGI,[41],38.5 µM
same,TGI,[42],30.2 µM
same,TGI,[43],44.4 µM
same,TGI,[44],29.1 µM
same,TGI,[45],33.5 µM
same,TGI,[46],72.5 µM
same,TGI,[47],36 µM
same,TGI,[48],61 µM
same,TGI,[49],99.5 µM
same,TGI,[50],76.1 µM
same,TGI,[51],40.1 µM
same,TGI,[52],29.4 µM
same,TGI,[53],48 µM
O=C(O)[C@@H]1C[C@@H](O)CN1,TGI,[54],> 100 µM
same,TGI,[2],> 100 µM
same,TGI,[55],> 100 µM
same,TGI,[3],> 100 µM
same,TGI,[56],> 100 µM
same,TGI,[4],> 100 µM
same,TGI,[5],> 100 µM
same,TGI,[6],> 100 µM
same,TGI,[7],> 100 µM
same,TGI,[8],> 100 µM
same,TGI,[9],> 100 µM
same,TGI,[57],> 100 µM
same,TGI,[10],> 100 µM
same,TGI,[11],> 100 µM
same,TGI,[58],> 100 µM
same,TGI,[12],> 100 µM
same,TGI,[13],> 100 µM
same,TGI,[14],> 100 µM
same,TGI,[15],> 100 µM
same,TGI,[16],> 100 µM
same,TGI,[59],> 100 µM
same,TGI,[18],> 100 µM
same,TGI,[19],> 100 µM
same,TGI,[20],> 100 µM
same,TGI,[21],> 100 µM
same,TGI,[22],> 100 µM
same,TGI,[23],> 100 µM
same,TGI,[24],> 100 µM
same,TGI,[25],> 100 µM
same,TGI,[26],> 100 µM
same,TGI,[27],> 100 µM
same,TGI,[60],> 100 µM
same,TGI,[28],> 100 µM
same,TGI,[29],> 100 µM
same,TGI,[30],> 100 µM
same,TGI,[31],> 100 µM
same,TGI,[61],> 100 µM
same,TGI,[33],> 100 µM
same,TGI,[34],> 100 µM
same,TGI,[36],> 100 µM
same,TGI,[37],> 100 µM
same,TGI,[38],> 100 µM
same,TGI,[40],> 100 µM
same,TGI,[41],> 100 µM
same,TGI,[62],> 100 µM
same,TGI,[42],> 100 µM
same,TGI,[43],> 100 µM
same,TGI,[63],> 100 µM
same,TGI,[44],> 100 µM
same,TGI,[64],> 100 µM
same,TGI,[46],> 100 µM
same,TGI,[65],> 100 µM
same,TGI,[48],> 100 µM
same,TGI,[66],> 100 µM
same,TGI,[67],> 100 µM
same,TGI,[49],> 100 µM
same,TGI,[51],> 100 µM
same,TGI,[53],> 100 µM
Cc1ccc(S(=O)(=O)n2ccn3c(=O)cc(C)nc23)cc1,TGI,[54],> 10 µM
same,TGI,[2],> 10 µM
same,TGI,[55],> 10 µM
same,TGI,[3],> 10 µM
same,TGI,[56],> 10 µM
same,TGI,[4],> 10 µM
same,TGI,[5],> 10 µM
same,TGI,[6],> 10 µM
same,TGI,[7],> 10 µM
same,TGI,[8],> 10 µM
same,TGI,[9],> 10 µM
same,TGI,[57],> 10 µM
same,TGI,[10],> 10 µM
same,TGI,[11],> 10 µM
same,TGI,[58],> 10 µM
same,TGI,[12],> 10 µM
same,TGI,[13],> 10 µM
same,TGI,[14],> 10 µM
same,TGI,[15],> 10 µM
same,TGI,[16],> 10 µM
same,TGI,[59],> 10 µM
same,TGI,[18],> 10 µM
same,TGI,[19],> 10 µM
same,TGI,[20],> 10 µM
same,TGI,[21],> 10 µM
same,TGI,[22],> 10 µM
same,TGI,[23],> 10 µM
same,TGI,[24],> 10 µM
same,TGI,[25],> 10 µM
same,TGI,[26],> 10 µM
same,TGI,[27],> 10 µM
same,TGI,[60],> 10 µM
same,TGI,[28],> 10 µM
same,TGI,[29],> 10 µM
same,TGI,[30],> 10 µM
same,TGI,[61],> 10 µM
same,TGI,[33],> 10 µM
same,TGI,[34],> 10 µM
same,TGI,[36],> 10 µM
same,TGI,[37],> 10 µM
same,TGI,[38],> 10 µM
same,TGI,[40],> 10 µM
same,TGI,[41],> 10 µM
same,TGI,[62],> 10 µM
same,TGI,[42],> 10 µM
same,TGI,[43],> 10 µM
same,TGI,[63],> 10 µM
same,TGI,[44],> 10 µM
same,TGI,[64],> 10 µM
same,TGI,[46],> 10 µM
same,TGI,[65],> 10 µM
same,TGI,[48],> 10 µM
same,TGI,[66],> 10 µM
same,TGI,[67],> 10 µM
same,TGI,[49],> 10 µM
same,TGI,[51],> 10 µM
same,TGI,[53],> 10 µM
Cc1cccc(NC(=O)CC2C(=O)Nc3ccccc3S2(=O)=O)c1C (configuration not stated),TGI,[54],34.3 µM
same,TGI,[1],> 100 µM
same,TGI,[2],> 100 µM
same,TGI,[3],> 100 µM
same,TGI,[4],60 µM
same,TGI,[5],> 100 µM
same,TGI,[6],45.1 µM
same,TGI,[7],> 100 µM
same,TGI,[8],> 100 µM
same,TGI,[9],41.6 µM
same,TGI,[10],> 100 µM
same,TGI,[11],44.4 µM
same,TGI,[12],> 100 µM
same,TGI,[13],> 100 µM
same,TGI,[14],78.1 µM
same,TGI,[15],82.4 µM
same,TGI,[16],> 100 µM
same,TGI,[59],48 µM
same,TGI,[17],51.6 µM
same,TGI,[18],> 100 µM
same,TGI,[19],84.2 µM
same,TGI,[20],> 100 µM
same,TGI,[21],> 100 µM
same,TGI,[22],33.1 µM
same,TGI,[23],> 100 µM
same,TGI,[24],> 100 µM
same,TGI,[25],32.1 µM
same,TGI,[26],50.5 µM
same,TGI,[27],52.8 µM
same,TGI,[28],37.9 µM
same,TGI,[29],46.3 µM
same,TGI,[30],76.1 µM
same,TGI,[31],> 100 µM
same,TGI,[32],> 100 µM
same,TGI,[33],37.6 µM
same,TGI,[35],33.4 µM
same,TGI,[36],70.3 µM
same,TGI,[37],79.5 µM
same,TGI,[38],61.2 µM
same,TGI,[39],77.3 µM
same,TGI,[40],> 100 µM
same,TGI,[41],74.1 µM
same,TGI,[62],75.4 µM
same,TGI,[42],> 100 µM
same,TGI,[44],> 100 µM
same,TGI,[45],> 100 µM
same,TGI,[46],> 100 µM
same,TGI,[47],> 100 µM
same,TGI,[48],58.3 µM
same,TGI,[49],37.7 µM
same,TGI,[50],61.9 µM
same,TGI,[51],33.7 µM
same,TGI,[52],> 100 µM
same,TGI,[53],> 100 µM
